≈ marks a conversion by molar mass, not a printed value. Calls of active or inactive are those of the source. No cut-off for these calls is given here.
What was measured:
Assay type in all cases: functional
A549 = assay: Cytotoxicity against human A549 cells; conditions: for EC50: read-out: ED50 (the source's name)
KB = assay: Cytotoxicity against human KB cells
L1210 = assay: Cytotoxicity against mouse L1210 cells
[1] = read-out: ED50 (the source's name)

## C[C@H]1[C@H](C)CC[C@]2(C(=O)O)CC[C@]3(C)C(=CC[C@@H]4[C@@]5(C)CC[C@H](O)C(C)(C)[C@@H]5CC[C@]43C)[C@H]12
A549
  Activity: Active
KB
  Activity: Active
L1210
  Activity: Active

## C[C@H]1C(=O)CC[C@@H]2[C@]1(C)CC[C@H]1[C@@]2(C)CC[C@@]2(C)[C@@H]3C[C@](C)(C(=O)O)CC[C@]3(C)CC[C@]12C [MAYTENOIC ACID]
A549
  EC50: 0.21 µg/mL (≈ 0.46 µM)

## C[C@H]1C(=O)CC[C@@H]2[C@]1(C)CC[C@H]1[C@@]2(C)CC[C@@]2(C)[C@@H]3C[C@](C)(CO)CC[C@]3(CO)CC[C@]12C
A549
  EC50: 0.64 µg/mL (≈ 1.4 µM)

## C[C@H]1C(=O)CC[C@@H]2[C@]1(C)CC[C@H]1[C@@]2(C)CC[C@@]2(C)[C@@H]3CC(C)(C)CC[C@]3(C(=O)O)CC[C@]12C
A549
  EC50: 1.18 µg/mL (≈ 2.58 µM)
KB; [1]
  EC50: 3.7 µg/mL (≈ 8.1 µM)
L1210; [1]
  EC50: 2.95 µg/mL (≈ 6.46 µM)
